Results published in PubChem BioAssay (NCI).
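Compound exposure: 48 hours, 5 concentrations, 96-well plates. GI50 marks 50% less growth. TGI: total growth inhibition.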

Tests used:
Test in all cases: DTP human tumour cell line panel, 48 h
ACHN renal = test system: ACHN renal
CAKI-1 renal = test system: CAKI-1 renal
HCT-116 colon = test system: HCT-116 colon
HOP-92 NSCLC = test system: HOP-92 NSCLC
NCI-H460 lung = test system: NCI-H460 lung
OVCAR-5 ovarian = test system: OVCAR-5 ovarian
RPMI-8226 leukemia = test system: RPMI-8226 leukemia
SNB-75 CNS = test system: SNB-75 CNS
HS 578T breast = test system: HS 578T breast
SK-MEL-2 melanoma = test system: SK-MEL-2 melanoma

## Cc1c(C(=O)/C=C/c2ccc([N+](=O)[O-])cc2)[n+](=O)c2ccccc2n1[O-]
ACHN renal
  TGI: > 100 µM
CAKI-1 renal
  TGI: > 100 µM
HCT-116 colon
  TGI: > 100 µM
HOP-92 NSCLC
  TGI: > 100 µM
NCI-H460 lung
  TGI: > 100 µM
OVCAR-5 ovarian
  TGI: > 100 µM
RPMI-8226 leukemia
  TGI: > 100 µM
SNB-75 CNS
  TGI: > 100 µM

## O=C(CCl)N1CCN(c2ccccn2)CC1
ACHN renal
  TGI: 61.2 µM
CAKI-1 renal
  TGI: 33.5 µM
HCT-116 colon
  TGI: > 100 µM
HOP-92 NSCLC
  TGI: 36.3 µM
HS 578T breast
  TGI: > 100 µM
NCI-H460 lung
  TGI: 41.2 µM
OVCAR-5 ovarian
  TGI: 35.1 µM
RPMI-8226 leukemia
  TGI: > 100 µM
SNB-75 CNS
  TGI: > 10 µM

## c1ccc(-c2sc(-c3ccccc3)c3c2C(c2ccccc2)c2c(-c4ccccc4)sc(-c4ccccc4)c2C3c2ccccc2)cc1 (stereo not drawn)
ACHN renal
  TGI: > 100 µM
CAKI-1 renal
  TGI: > 100 µM
HCT-116 colon
  TGI: > 100 µM
HOP-92 NSCLC
  TGI: > 100 µM
NCI-H460 lung
  TGI: > 100 µM
OVCAR-5 ovarian
  TGI: > 100 µM
RPMI-8226 leukemia
  TGI: > 100 µM
SNB-75 CNS
  TGI: > 100 µM

## O=c1[nH]c(-c2ccccc2)nc2cc([N+](=O)[O-])c(/C(Cl)=C/c3ccccc3)cc12
ACHN renal
  TGI: > 100 µM
CAKI-1 renal
  TGI: > 100 µM
HCT-116 colon
  TGI: > 100 µM
HOP-92 NSCLC
  TGI: 35.6 µM
OVCAR-5 ovarian
  TGI: > 100 µM
RPMI-8226 leukemia
  TGI: 88.7 µM
SK-MEL-2 melanoma
  TGI: 71.8 µM
SNB-75 CNS
  TGI: 53.1 µM

## N#Cc1ncc(-c2ccc(C(F)(F)F)cc2)c(NC2CCCCCC2)n1
ACHN renal
  GI50: 24 µM
  TGI: > 100 µM
CAKI-1 renal
  GI50: 18.3 µM
  TGI: > 100 µM
HCT-116 colon
  GI50: 5.25 µM
  TGI: > 100 µM
HS 578T breast
  GI50: 22.4 µM
  TGI: > 100 µM
NCI-H460 lung
  GI50: 11.1 µM
  TGI: > 100 µM
OVCAR-5 ovarian
  GI50: > 100 µM
  TGI: > 100 µM
RPMI-8226 leukemia
  GI50: 4.99 µM
  TGI: > 100 µM
SNB-75 CNS
  GI50: > 100 µM
  TGI: > 100 µM

## [CH3][Ge]([CH3])([CH2]CC#N)[S]c1ccccc1
ACHN renal
  GI50: 18 µM
  TGI: 33.1 µM
CAKI-1 renal
  GI50: 21.3 µM
  TGI: 43.7 µM
HOP-92 NSCLC
  GI50: 31.2 µM
  TGI: 79.7 µM
NCI-H460 lung
  GI50: 16.3 µM
  TGI: 29.8 µM
OVCAR-5 ovarian
  GI50: 17.8 µM
  TGI: 39.5 µM
RPMI-8226 leukemia
  GI50: 16.2 µM
  TGI: 53.2 µM
SK-MEL-2 melanoma
  GI50: 14.7 µM
  TGI: 39.6 µM
SNB-75 CNS
  GI50: 23.4 µM
  TGI: 74 µM

## C/C(=C\CNc1ncnc2c1ncn2C1CCCCO1)COP(=O)(O)O (stereo not drawn)
ACHN renal
  TGI: > 100 µM
CAKI-1 renal
  TGI: > 100 µM
HCT-116 colon
  TGI: > 100 µM
HOP-92 NSCLC
  TGI: > 100 µM
NCI-H460 lung
  TGI: > 100 µM
OVCAR-5 ovarian
  TGI: > 100 µM
RPMI-8226 leukemia
  TGI: > 100 µM
SK-MEL-2 melanoma
  TGI: > 100 µM
SNB-75 CNS
  TGI: > 100 µM

## NNC(=O)N/N=C(/CC1(O)C(=O)Nc2ccc(Br)cc21)c1ccccc1 (stereo not drawn)
ACHN renal
  TGI: > 100 µM
CAKI-1 renal
  TGI: > 100 µM
HCT-116 colon
  TGI: 72.6 µM
HOP-92 NSCLC
  TGI: 63.8 µM
RPMI-8226 leukemia
  TGI: > 100 µM
SK-MEL-2 melanoma
  TGI: 85.2 µM
SNB-75 CNS
  TGI: > 100 µM

## CCCN(CCCC(NC(C)=O)C(=O)NCc1ccccc1)C(=O)N(C)N=O (stereo not drawn)
ACHN renal
  TGI: > 100 µM
CAKI-1 renal
  TGI: > 100 µM
HCT-116 colon
  TGI: > 100 µM
HOP-92 NSCLC
  TGI: > 100 µM
NCI-H460 lung
  TGI: > 100 µM
OVCAR-5 ovarian
  TGI: > 100 µM
RPMI-8226 leukemia
  TGI: > 100 µM
SK-MEL-2 melanoma
  TGI: > 100 µM
SNB-75 CNS
  TGI: > 100 µM

## O=C1C=C(Nc2cc(Cl)ccc2Cl)c2ccccc2C1=O
ACHN renal
  TGI: > 100 µM
CAKI-1 renal
  TGI: 75.5 µM
HCT-116 colon
  TGI: > 100 µM
HOP-92 NSCLC
  TGI: 69.7 µM
NCI-H460 lung
  TGI: 88.9 µM
OVCAR-5 ovarian
  TGI: > 100 µM
RPMI-8226 leukemia
  TGI: 68 µM
SK-MEL-2 melanoma
  TGI: 33.9 µM
SNB-75 CNS
  TGI: 70.3 µM

## CCP(C)(=O)CC
ACHN renal
  TGI: > 100 µM
CAKI-1 renal
  TGI: > 100 µM
HCT-116 colon
  TGI: > 100 µM
HOP-92 NSCLC
  TGI: > 100 µM
NCI-H460 lung
  TGI: > 100 µM
OVCAR-5 ovarian
  TGI: > 100 µM
RPMI-8226 leukemia
  TGI: > 100 µM
SK-MEL-2 melanoma
  TGI: > 100 µM
SNB-75 CNS
  TGI: > 100 µM

## CCOC(=O)C1(C)C2=CC=C(O2)C(C)(C)C2=CC=C(O2)C(C)(C)C2=CC=C(O2)C(C)(C)C2=CC=C1O2
ACHN renal
  TGI: > 100 µM
CAKI-1 renal
  TGI: > 100 µM
HCT-116 colon
  TGI: > 100 µM
HOP-92 NSCLC
  TGI: > 100 µM
NCI-H460 lung
  TGI: > 100 µM
OVCAR-5 ovarian
  TGI: > 100 µM
SK-MEL-2 melanoma
  TGI: > 100 µM

## Cc1cc(NS(=O)(=O)c2ccc(NC(=O)c3cccc4c(Nc5ccc(S(=O)(=O)Nc6cc(C)on6)cc5)c5ccc(Cl)cc5nc34)cc2)no1
ACHN renal
  TGI: > 100 µM
CAKI-1 renal
  TGI: > 100 µM
HCT-116 colon
  TGI: 57.5 µM
HOP-92 NSCLC
  TGI: 80.5 µM
NCI-H460 lung
  TGI: > 100 µM
OVCAR-5 ovarian
  TGI: > 100 µM
RPMI-8226 leukemia
  TGI: > 100 µM
SK-MEL-2 melanoma
  TGI: > 100 µM
SNB-75 CNS
  TGI: 65.2 µM

## N#Cc1c(-c2ccccc2)nc(SCC(O)CN2CCOCC2)nc1N1CCOCC1 (stereo not drawn)
ACHN renal
  GI50: 10.8 µM
  TGI: > 100 µM
CAKI-1 renal
  GI50: 1.67 µM
HCT-116 colon
  GI50: 32.4 µM
  TGI: > 100 µM
HOP-92 NSCLC
  GI50: 0.442 µM
  TGI: 2.23 µM
HS 578T breast
  GI50: 6.22 µM
  TGI: 63.2 µM
NCI-H460 lung
  GI50: 7.03 µM
  TGI: > 100 µM
OVCAR-5 ovarian
  GI50: 19 µM
  TGI: > 100 µM
RPMI-8226 leukemia
  GI50: 7.78 µM
  TGI: 41.6 µM
SNB-75 CNS
  GI50: 1.36 µM
  TGI: 11.1 µM

## O=C(CC(=O)N1N=C(n2ccc3ccccc32)CC1c1ccccc1)Nc1ccccc1Cl (stereo not drawn)
ACHN renal
  TGI: > 100 µM
HCT-116 colon
  TGI: > 100 µM
HOP-92 NSCLC
  TGI: > 100 µM
NCI-H460 lung
  TGI: > 100 µM
RPMI-8226 leukemia
  TGI: > 100 µM
SK-MEL-2 melanoma
  TGI: > 100 µM
SNB-75 CNS
  TGI: > 100 µM

## O=C1NC(c2cccc3ccccc23)Nc2ccc(Cl)cc21 (stereo not drawn)
ACHN renal
  TGI: 10.7 µM
CAKI-1 renal
  GI50: 0.0109 µM
  TGI: 11.2 µM
HCT-116 colon
  TGI: 12.1 µM
NCI-H460 lung
  TGI: 0.279 µM
OVCAR-5 ovarian
  GI50: 0.0291 µM
  TGI: 0.085 µM
SNB-75 CNS
  TGI: 0.000902 µM

## CCCCN(CCCC)CC(C(=O)Nc1ccc([N+](=O)[O-])cc1[N+](=O)[O-])/C(C)=N\NC(=O)c1ccncc1 (stereo not drawn)
ACHN renal
  TGI: > 100 µM
CAKI-1 renal
  TGI: > 100 µM
HOP-92 NSCLC
  TGI: > 100 µM
NCI-H460 lung
  TGI: > 100 µM
OVCAR-5 ovarian
  TGI: > 100 µM
RPMI-8226 leukemia
  TGI: > 100 µM
SK-MEL-2 melanoma
  TGI: > 100 µM
SNB-75 CNS
  TGI: > 100 µM

## C=C1C2CCCC1C1(S(C)(=O)=O)CCCCC21O (stereo not drawn)
ACHN renal
  TGI: > 100 µM
CAKI-1 renal
  TGI: > 100 µM
HCT-116 colon
  TGI: > 100 µM
NCI-H460 lung
  TGI: > 100 µM
OVCAR-5 ovarian
  TGI: > 100 µM
RPMI-8226 leukemia
  TGI: > 100 µM
SK-MEL-2 melanoma
  TGI: > 100 µM
SNB-75 CNS
  TGI: > 100 µM

## COc1cccc(N2C(=N)/C(=C3\Nc4ccccc4S3)CC2=O)c1
ACHN renal
  GI50: 4.93 µM
  TGI: > 100 µM
CAKI-1 renal
  GI50: 8.21 µM
  TGI: > 100 µM
HCT-116 colon
  GI50: 6.22 µM
  TGI: > 100 µM
HS 578T breast
  GI50: 27.5 µM
  TGI: > 100 µM
NCI-H460 lung
  GI50: 2.89 µM
  TGI: 26.3 µM
OVCAR-5 ovarian
  GI50: > 100 µM
  TGI: > 100 µM
RPMI-8226 leukemia
  GI50: 2.73 µM
  TGI: > 100 µM
SK-MEL-2 melanoma
  GI50: 48.4 µM
  TGI: > 100 µM
SNB-75 CNS
  GI50: 10.3 µM
  TGI: 57.3 µM

## NC(N)=NCCCC(Nc1c2ccccc2nc2ccccc12)C(=O)O (stereo not drawn)
ACHN renal
  TGI: > 100 µM
CAKI-1 renal
  TGI: > 100 µM
HCT-116 colon
  TGI: > 100 µM
HOP-92 NSCLC
  TGI: > 100 µM
NCI-H460 lung
  TGI: > 100 µM
OVCAR-5 ovarian
  TGI: > 100 µM
RPMI-8226 leukemia
  TGI: > 100 µM
SK-MEL-2 melanoma
  TGI: > 100 µM
SNB-75 CNS
  TGI: > 100 µM

## O=C1CCC2(c3ccccc3)OCC([C@@H](O)c3ccccc3)N12 (stereo partly drawn)
ACHN renal
  TGI: > 100 µM
CAKI-1 renal
  TGI: > 100 µM
HCT-116 colon
  TGI: > 100 µM
HOP-92 NSCLC
  TGI: > 100 µM
NCI-H460 lung
  TGI: > 100 µM
OVCAR-5 ovarian
  TGI: > 100 µM
RPMI-8226 leukemia
  TGI: > 100 µM
SK-MEL-2 melanoma
  TGI: > 100 µM
SNB-75 CNS
  TGI: > 100 µM
